Source: patent publication US6214846A, “Substituted 3-(benzylamino)piperidine derivatives and their use as therapeutic agents” (Merck Sharp & Dohme Limited, priority 1997, dated 2001)
Counter-ions that a name gives are not always drawn.

Biological target: human NK1 receptor (Homo sapiens, UniProt P25103)
Test: IC50 at the human NK1 receptor (methods of pages 36 to 39 of WO 93/01165)
Format: binding
Conditions: test method of WO 93/01165
Procedure: The exemplified compounds of this invention were tested by the methods set out at pages 36 to 39 of International Patent Specification No. WO 93/01165.

Chain of human NK1 receptor (P25103 whole entry): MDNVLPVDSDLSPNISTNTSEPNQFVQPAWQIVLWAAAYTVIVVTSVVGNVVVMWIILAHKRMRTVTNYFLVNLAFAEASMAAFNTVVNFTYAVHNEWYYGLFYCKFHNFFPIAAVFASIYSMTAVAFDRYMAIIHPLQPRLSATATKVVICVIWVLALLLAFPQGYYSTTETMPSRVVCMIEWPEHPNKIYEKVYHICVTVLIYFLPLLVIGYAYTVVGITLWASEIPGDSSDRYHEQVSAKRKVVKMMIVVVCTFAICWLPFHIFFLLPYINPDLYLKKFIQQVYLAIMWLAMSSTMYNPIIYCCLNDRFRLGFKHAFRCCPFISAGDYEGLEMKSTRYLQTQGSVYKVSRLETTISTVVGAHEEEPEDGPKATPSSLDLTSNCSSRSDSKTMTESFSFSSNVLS

IC50	Structure (SMILES)
0.17 nM	FC(F)(F)Oc1ccc(OC2CC2)c(CN[C@H]2CCCN[C@H]2c2ccccc2)c1 (relative stereo) [Example 1, (±)-(2R3R,2S3S)-N-{[2-Cyclopropoxy-5-(trifluoromethoxy)phenyl]methyl}-2-phenylpiperidin-3-amine Dihydrochloride]
0.2 nM	Fc1ccc([C@@H]2NCCC[C@@H]2NCc2cc(OC(F)(F)F)ccc2OC2CC2)cc1 (relative stereo) [Example 3, (±)-(2R3R,2S3S)-N-{[2-Cyclopropoxy-5-(trifluoromethoxy)phenyl]methyl}-2-(4-fluorophenyl)piperidin-3-amine Dihydrochloride]
